Laboratory results as given in ChEMBL document CHEMBL4507263, “Data for DCP probe BAY-474” (2021).

Tests used:
[1] = target: Serine/threonine-protein kinase haspin (Homo sapiens) (UniProt Q8TF76); conditions: Compound concentration 1000.0 nM
[2] = tested on: Phosphatidylinositol 4,5-bisphosphate 3-kinase catalytic subunit alpha isoform (Homo sapiens), P42336 [E545A]; conditions: Compound concentration 1000.0 nM
[3] = target: Dual specificity mitogen-activated protein kinase kinase 6 (Homo sapiens) (UniProt P52564); conditions: Compound concentration 1000.0 nM
[4] = target: Glycogen synthase kinase-3 beta (Homo sapiens) (UniProt P49841); conditions: Compound concentration 1000.0 nM
Sequence of Glycogen synthase kinase-3 beta (Homo sapiens) (P49841 whole entry, looked up): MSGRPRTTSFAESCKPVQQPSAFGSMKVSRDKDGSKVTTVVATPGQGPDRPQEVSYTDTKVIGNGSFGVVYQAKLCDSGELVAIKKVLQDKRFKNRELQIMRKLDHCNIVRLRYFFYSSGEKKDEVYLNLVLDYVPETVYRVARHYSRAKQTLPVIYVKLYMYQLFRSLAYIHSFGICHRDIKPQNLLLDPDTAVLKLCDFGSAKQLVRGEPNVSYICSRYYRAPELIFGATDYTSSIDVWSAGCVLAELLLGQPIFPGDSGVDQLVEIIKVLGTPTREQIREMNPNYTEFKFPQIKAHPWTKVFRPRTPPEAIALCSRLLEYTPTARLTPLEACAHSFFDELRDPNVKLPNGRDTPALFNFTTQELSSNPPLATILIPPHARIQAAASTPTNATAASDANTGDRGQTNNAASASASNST

[5] = target: Mitogen-activated protein kinase 7 (Homo sapiens) (UniProt Q13164); conditions: Compound concentration 1000.0 nM
Sequence of Mitogen-activated protein kinase 7 (Homo sapiens) (Q13164 2-816 limits assumed): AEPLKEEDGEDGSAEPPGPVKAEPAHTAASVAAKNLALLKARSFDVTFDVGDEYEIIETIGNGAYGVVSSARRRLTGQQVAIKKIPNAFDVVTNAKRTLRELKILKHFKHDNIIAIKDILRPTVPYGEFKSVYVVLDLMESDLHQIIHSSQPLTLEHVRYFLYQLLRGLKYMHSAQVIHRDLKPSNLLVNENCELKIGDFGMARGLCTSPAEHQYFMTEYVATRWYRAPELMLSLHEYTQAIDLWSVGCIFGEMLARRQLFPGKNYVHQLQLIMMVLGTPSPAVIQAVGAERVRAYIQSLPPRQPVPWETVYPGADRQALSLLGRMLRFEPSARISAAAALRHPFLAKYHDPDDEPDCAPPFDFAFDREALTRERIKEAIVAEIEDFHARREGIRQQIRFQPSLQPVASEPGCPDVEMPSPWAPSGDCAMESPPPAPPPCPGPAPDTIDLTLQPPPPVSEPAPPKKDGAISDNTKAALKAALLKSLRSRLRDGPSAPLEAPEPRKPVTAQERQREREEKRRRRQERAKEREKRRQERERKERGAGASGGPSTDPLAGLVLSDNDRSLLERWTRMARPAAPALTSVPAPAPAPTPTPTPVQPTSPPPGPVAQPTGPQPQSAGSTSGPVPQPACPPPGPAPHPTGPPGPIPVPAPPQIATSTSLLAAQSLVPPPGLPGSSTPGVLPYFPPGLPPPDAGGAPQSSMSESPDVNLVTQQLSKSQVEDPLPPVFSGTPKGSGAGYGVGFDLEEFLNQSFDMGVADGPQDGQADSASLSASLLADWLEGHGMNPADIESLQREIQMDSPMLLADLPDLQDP

[6] = target: Mitogen-activated protein kinase 6 (Homo sapiens) (UniProt Q16659); conditions: Compound concentration 1000.0 nM
[7] = target: Calcium/calmodulin-dependent protein kinase kinase 2 (Homo sapiens) (UniProt Q96RR4); conditions: Compound concentration 1000.0 nM
[8] = target: Serine/threonine-protein kinase PLK2 (Homo sapiens) (UniProt Q9NYY3); conditions: Compound concentration 1000.0 nM
[9] = target: AP2-associated protein kinase 1 (Homo sapiens) (UniProt Q2M2I8); conditions: Compound concentration 1000.0 nM
Sequence of AP2-associated protein kinase 1 (Homo sapiens) (Q2M2I8 whole entry, looked up): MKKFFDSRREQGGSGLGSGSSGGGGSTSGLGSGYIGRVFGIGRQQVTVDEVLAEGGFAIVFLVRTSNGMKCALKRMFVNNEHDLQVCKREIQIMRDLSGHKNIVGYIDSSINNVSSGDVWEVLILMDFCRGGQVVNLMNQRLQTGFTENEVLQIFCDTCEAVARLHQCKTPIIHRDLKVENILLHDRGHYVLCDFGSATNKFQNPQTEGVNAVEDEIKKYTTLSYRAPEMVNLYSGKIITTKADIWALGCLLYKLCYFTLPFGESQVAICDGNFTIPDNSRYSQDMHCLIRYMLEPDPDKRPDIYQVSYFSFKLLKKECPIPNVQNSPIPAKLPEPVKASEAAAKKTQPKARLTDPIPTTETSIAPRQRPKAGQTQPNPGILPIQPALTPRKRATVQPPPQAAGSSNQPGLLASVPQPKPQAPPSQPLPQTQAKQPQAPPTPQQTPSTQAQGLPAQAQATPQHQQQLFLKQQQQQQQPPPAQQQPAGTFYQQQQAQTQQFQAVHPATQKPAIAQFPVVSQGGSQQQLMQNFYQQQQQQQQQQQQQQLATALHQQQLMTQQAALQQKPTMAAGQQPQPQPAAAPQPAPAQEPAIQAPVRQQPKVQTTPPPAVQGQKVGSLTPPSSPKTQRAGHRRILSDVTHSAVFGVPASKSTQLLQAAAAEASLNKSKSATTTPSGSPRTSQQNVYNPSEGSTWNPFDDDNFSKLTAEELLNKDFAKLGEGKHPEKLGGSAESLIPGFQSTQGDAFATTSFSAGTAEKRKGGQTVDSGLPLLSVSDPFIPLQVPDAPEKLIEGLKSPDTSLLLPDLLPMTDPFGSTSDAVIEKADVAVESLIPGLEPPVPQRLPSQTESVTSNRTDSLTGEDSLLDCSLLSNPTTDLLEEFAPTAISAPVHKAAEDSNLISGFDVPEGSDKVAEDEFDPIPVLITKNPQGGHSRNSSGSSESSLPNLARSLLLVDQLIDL

[10] = target: STE20/SPS1-related proline-alanine-rich protein kinase (Homo sapiens) (UniProt Q9UEW8); conditions: Compound concentration 1000.0 nM
[11] = target: Death-associated protein kinase 1 (Homo sapiens) (UniProt P53355); conditions: Compound concentration 1000.0 nM
Sequence of Death-associated protein kinase 1 (Homo sapiens) (P53355 whole entry, looked up): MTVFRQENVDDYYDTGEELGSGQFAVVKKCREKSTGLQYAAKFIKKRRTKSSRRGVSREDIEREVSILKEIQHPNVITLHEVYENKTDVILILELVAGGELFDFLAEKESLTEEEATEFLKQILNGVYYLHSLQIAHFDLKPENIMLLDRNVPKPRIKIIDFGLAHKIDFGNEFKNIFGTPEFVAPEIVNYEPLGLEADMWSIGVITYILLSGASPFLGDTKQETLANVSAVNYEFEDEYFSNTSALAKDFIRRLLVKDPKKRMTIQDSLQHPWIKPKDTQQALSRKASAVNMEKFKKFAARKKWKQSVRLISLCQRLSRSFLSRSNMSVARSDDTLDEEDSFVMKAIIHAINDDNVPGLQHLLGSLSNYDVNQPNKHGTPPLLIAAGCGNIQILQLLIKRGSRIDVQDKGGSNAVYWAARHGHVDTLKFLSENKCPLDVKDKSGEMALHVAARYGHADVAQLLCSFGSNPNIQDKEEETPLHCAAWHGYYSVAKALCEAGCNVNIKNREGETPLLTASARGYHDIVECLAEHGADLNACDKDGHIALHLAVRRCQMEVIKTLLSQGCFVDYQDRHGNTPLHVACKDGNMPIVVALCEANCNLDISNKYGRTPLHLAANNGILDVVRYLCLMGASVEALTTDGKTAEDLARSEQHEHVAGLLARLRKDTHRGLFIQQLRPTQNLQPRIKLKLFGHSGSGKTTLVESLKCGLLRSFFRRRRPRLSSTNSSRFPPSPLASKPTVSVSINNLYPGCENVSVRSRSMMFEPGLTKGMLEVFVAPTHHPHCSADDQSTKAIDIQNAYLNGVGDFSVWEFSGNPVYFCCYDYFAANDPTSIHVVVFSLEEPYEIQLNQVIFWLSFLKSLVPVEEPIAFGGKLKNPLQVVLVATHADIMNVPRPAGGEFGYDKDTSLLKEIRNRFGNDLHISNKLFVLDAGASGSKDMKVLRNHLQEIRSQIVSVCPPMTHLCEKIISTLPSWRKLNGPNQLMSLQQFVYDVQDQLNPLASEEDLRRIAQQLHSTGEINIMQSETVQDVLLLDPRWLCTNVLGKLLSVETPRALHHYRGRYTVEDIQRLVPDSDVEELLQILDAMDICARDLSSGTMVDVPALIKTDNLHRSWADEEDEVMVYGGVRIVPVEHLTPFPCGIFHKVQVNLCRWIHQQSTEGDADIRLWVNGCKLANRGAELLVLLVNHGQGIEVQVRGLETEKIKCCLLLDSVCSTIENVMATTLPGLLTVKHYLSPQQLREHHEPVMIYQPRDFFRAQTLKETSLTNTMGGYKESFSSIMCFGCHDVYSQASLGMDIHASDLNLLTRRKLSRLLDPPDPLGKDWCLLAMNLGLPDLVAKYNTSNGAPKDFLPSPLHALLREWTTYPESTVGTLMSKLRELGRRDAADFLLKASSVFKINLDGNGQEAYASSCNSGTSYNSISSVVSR

[12] = target: Mitogen-activated protein kinase kinase kinase 6 (Homo sapiens) (UniProt O95382); conditions: Compound concentration 1000.0 nM
Sequence of Mitogen-activated protein kinase kinase kinase 6 (Homo sapiens) (O95382 whole entry): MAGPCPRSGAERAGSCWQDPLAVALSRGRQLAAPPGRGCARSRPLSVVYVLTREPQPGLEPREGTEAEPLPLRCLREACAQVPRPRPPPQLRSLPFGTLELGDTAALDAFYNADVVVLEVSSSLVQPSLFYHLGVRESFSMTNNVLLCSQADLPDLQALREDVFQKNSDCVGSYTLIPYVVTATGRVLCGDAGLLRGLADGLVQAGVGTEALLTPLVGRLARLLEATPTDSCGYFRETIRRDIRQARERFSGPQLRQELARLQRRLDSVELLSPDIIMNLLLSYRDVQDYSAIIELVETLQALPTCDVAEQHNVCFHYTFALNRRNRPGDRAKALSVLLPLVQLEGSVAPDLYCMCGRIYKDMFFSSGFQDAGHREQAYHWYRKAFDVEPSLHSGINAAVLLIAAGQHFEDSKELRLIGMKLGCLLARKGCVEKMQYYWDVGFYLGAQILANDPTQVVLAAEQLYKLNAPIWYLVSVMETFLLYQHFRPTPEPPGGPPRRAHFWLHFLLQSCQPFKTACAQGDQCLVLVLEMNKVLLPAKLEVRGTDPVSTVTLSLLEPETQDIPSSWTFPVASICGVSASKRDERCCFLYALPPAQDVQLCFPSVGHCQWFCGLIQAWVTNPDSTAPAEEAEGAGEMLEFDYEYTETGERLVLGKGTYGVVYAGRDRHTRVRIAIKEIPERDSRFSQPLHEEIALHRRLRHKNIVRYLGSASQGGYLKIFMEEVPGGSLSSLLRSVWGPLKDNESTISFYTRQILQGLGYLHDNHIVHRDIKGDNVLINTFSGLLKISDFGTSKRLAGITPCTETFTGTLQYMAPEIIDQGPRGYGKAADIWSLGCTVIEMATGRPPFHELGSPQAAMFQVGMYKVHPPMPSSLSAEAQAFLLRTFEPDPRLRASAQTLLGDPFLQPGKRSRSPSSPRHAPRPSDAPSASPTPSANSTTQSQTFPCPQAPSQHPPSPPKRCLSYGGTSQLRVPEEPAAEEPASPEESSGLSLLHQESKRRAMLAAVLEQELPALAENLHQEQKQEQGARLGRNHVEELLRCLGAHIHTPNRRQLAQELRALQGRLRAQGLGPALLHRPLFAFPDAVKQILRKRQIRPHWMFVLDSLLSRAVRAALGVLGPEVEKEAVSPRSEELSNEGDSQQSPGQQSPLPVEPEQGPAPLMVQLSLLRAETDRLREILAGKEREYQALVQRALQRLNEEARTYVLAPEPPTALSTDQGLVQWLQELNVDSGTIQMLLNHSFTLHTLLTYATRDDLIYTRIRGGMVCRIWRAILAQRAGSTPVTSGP

[13] = target: Dual specificity tyrosine-phosphorylation-regulated kinase 1A (Homo sapiens) (UniProt Q13627); conditions: Compound concentration 1000.0 nM
[14] = target: Ribosomal protein S6 kinase alpha-5 (Homo sapiens) (UniProt O75582); conditions: Compound concentration 1000.0 nM
[15] = target: Tyrosine-protein kinase ABL1 (Homo sapiens) (UniProt P00519); conditions: Compound concentration 1000.0 nM
[16] = target: Serine/threonine-protein kinase VRK2 (Homo sapiens) (UniProt Q86Y07); conditions: Compound concentration 1000.0 nM
[17] = target: TGF-beta receptor type-1 (Homo sapiens) (UniProt P36897); conditions: Compound concentration 1000.0 nM
[18] = tested on: Epidermal growth factor receptor (Homo sapiens), P00533 [UNDEFINED MUTATION]; conditions: Compound concentration 1000.0 nM
[19] = target: Ephrin type-B receptor 2 (Homo sapiens) (UniProt P29323); conditions: Compound concentration 1000.0 nM
[20] = target: Cyclin-dependent kinase 18 (Homo sapiens) (UniProt Q07002); conditions: Compound concentration 1000.0 nM
[21] = target: Receptor-type tyrosine-protein kinase FLT3 (Homo sapiens) (UniProt P36888); conditions: Compound concentration 1000.0 nM
[22] = target: Neuropeptide Y receptor type 2 (Homo sapiens) (UniProt P49146); assay: Inhibition of Neuropeptide Y Y2 at 10 µM in the Eurofins-Panlabs radioligand binding assay (Eurofins_assay_257110); conditions: Compound concentration 10.0 uM
[23] = target: Serine/threonine-protein kinase Nek2 (Homo sapiens) (UniProt P51955); assay: NEK2 (h) Millipore kinase activity assay; conditions: Compound concentration 1.0 uM
[24] = target: Substance-P receptor (Homo sapiens) (UniProt P25103); assay: Inhibition of Tachykinin NK1 at 10 µM in the Eurofins-Panlabs radioligand binding assay (Eurofins_assay_255520); set-up: ligand concentration 0.8 nM; conditions: Compound concentration 10.0 uM
[25] = target: Fibroblast growth factor receptor 1 (Homo sapiens) (UniProt P11362); assay: FGFR1 (h) Millipore kinase activity assay; conditions: Compound concentration 1.0 uM
[26] = target: Protein kinase C epsilon type (Homo sapiens) (UniProt Q02156); assay: PKCepsilon (h) Millipore kinase activity assay; conditions: Compound concentration 1.0 uM
[27] = target: T1, Alpha-1D adrenergic receptor (Homo sapiens) (UniProt P25100); assay: Inhibition of Adrenergic alpha1D at 10 µM in the Eurofins-Panlabs radioligand binding assay (Eurofins_assay_203400); conditions: Compound concentration 10.0 uM
T1 sequence (whole entry): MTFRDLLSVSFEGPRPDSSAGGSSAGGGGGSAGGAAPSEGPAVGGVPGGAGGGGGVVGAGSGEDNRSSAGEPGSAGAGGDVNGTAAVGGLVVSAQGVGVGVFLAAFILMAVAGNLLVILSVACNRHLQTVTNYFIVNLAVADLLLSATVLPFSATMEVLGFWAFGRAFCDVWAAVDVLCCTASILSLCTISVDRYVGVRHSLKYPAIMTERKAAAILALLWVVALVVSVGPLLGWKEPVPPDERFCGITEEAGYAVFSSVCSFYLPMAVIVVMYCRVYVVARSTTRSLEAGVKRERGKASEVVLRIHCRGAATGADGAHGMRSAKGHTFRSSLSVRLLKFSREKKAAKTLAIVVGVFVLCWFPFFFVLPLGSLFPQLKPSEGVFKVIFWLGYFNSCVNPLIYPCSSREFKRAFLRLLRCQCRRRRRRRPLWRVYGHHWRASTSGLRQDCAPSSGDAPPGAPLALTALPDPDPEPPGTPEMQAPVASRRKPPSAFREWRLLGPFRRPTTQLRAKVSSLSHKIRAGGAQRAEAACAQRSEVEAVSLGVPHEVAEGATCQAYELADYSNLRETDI

[28] = target: Protein-tyrosine kinase 2-beta (Homo sapiens) (UniProt Q14289); assay: Pyk2 (h) Millipore kinase activity assay; conditions: Compound concentration 1.0 uM
[29] = target: Mitogen-activated protein kinase kinase kinase 9 (Homo sapiens) (UniProt P80192); assay: MLK1 (h) Millipore kinase activity assay; conditions: Compound concentration 1.0 uM
[30] = target: G protein-coupled receptor kinase 6 (Homo sapiens) (UniProt P43250); assay: GRK6 (h) Millipore kinase activity assay; conditions: Compound concentration 1.0 uM
[31] = target: Protein kinase C alpha type (Homo sapiens) (UniProt P17252); assay: PKCalpha (h) Millipore kinase activity assay; conditions: Compound concentration 1.0 uM
[32] = target: Adenosine receptor A2a (Homo sapiens) (UniProt P29274); conditions: Compound concentration 10.0 uM
[33] = target: Cyclin-dependent kinase 3 (Homo sapiens) (UniProt Q00526); assay: CDK3/cyclinE (h) Millipore kinase activity assay; conditions: Compound concentration 1.0 uM
[34] = target: Serine/threonine-protein kinase STK11 (Homo sapiens) (UniProt Q15831); assay: LKB1 (h) Millipore kinase activity assay; conditions: Compound concentration 1.0 uM
Homo sapiens = species on record: Homo sapiens; assay: Inhibition of Nicotinic Acetylcholine at compound concentration of 10.0 uM in the Eurofins-Panlabs radioligand binding assay (Eurofins_assay_258590); assay type: protein-complex assay; conditions: Compound concentration 10.0 uM

CC1=C(C#N)[C@@H](c2ccc3[nH]nc(C)c3c2)C(C#N)=C(c2ccc(Cl)cc2)N1 [BAY-827]
inactive: residual activity [1] 100% | residual activity [2] 75.4% | residual activity [3] 100% | residual activity [4] 69.6% | residual activity [5] 90% | residual activity [6] 100% | residual activity [7] 86.5% | residual activity [8] 100% | residual activity [9] 100% | residual activity [10] 90.7% | residual activity [11] 100% | residual activity [12] 83.2% | residual activity [13] 100% | residual activity [14] 100% | residual activity [15] 82.9% | residual activity [16] 100% | residual activity [17] 62.4% | residual activity [18] 100% | residual activity [19] 100% | residual activity [20] 100% | residual activity [21] 100%

CC1=C(C#N)C(c2ccc3[nH]nc(C)c3c2)C(C#N)=C(C)N1 [BAY-474]
inactive: inhibition [22] 3% | inhibition [23] -5% | inhibition [24] -4% | inhibition [25] 23% | inhibition [26] 26% | inhibition [27] -9% | inhibition [28] 17% | inhibition [29] -1% | inhibition [30] -2% | inhibition [31] 18% | inhibition [32] 7% | inhibition [33] -4% | inhibition [34] -8% | inhibition (Homo sapiens) -1%
